This test deals with T1, Poly [ADP-ribose] polymerase tankyrase-2 (Homo sapiens, UniProt Q9H2K2).
T1 sequence (Q9H2K2 whole entry): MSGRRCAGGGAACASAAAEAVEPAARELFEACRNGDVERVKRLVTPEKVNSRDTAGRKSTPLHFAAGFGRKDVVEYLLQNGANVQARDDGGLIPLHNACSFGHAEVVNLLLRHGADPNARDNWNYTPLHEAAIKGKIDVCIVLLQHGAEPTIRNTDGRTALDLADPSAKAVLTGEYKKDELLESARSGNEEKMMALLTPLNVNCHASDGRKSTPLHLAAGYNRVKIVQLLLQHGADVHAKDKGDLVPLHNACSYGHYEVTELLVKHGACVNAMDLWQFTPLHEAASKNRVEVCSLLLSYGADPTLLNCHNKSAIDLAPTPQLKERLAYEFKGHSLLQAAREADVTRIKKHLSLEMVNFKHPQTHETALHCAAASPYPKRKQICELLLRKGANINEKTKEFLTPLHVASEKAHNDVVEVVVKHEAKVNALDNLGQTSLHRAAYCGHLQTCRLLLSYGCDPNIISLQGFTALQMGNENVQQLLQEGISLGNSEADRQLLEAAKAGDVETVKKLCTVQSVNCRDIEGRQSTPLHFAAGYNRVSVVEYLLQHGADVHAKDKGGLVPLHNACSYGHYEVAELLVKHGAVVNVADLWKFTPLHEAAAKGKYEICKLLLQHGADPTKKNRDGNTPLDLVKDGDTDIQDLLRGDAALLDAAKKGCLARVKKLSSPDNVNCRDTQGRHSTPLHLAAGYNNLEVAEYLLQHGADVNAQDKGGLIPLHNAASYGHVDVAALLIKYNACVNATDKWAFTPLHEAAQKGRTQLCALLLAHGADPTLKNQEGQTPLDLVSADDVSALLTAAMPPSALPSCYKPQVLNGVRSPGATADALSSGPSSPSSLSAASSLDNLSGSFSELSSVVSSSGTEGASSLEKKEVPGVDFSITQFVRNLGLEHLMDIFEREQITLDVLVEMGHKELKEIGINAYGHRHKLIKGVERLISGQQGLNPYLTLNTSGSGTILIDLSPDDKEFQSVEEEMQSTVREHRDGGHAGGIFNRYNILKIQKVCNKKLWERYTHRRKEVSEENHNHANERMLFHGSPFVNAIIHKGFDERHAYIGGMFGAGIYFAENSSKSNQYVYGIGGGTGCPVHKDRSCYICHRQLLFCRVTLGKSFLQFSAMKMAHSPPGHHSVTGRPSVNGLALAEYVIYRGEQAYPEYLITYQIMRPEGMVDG
The test is described as follows: Biochemical Assay. The source says: IC50 calculations:XLfit (idbs) was used to determine the IC50-values in inhibition experiments. The following formula was chosen to fit the data points (Langmuir Binding Isotherm):fit=((A+(B*x))+[…]*(1−exp((−1*D)*x)))/D)), res=(y−fit)

Take `O=C(N[C@H]1C[C@H](c2nnc(-c3nccs3)n2-c2ccccc2F)C1)c1ccnc2cc(F)cnc12` [US11926614, Example 29]: it took 2 nM to reach half-maximal inhibition (IC50).
